This is an account of results in patent US8623853B2, “Treatment of cancers characterized by chromosomal rearrangement of the NUT gene” (The Brigham and Women's Hospital, Inc., priority 2008, dated 2014).

One series has as its system NMC (TC797) cells. The experiment in a line: High-content 384-well assay of proliferation, histone acetylation and keratin expression adapted to NMC culture. It is filed as cell-based. How it is done:
A cell based approach was developed for identifying potent and selective HDAC inhibitors. Nuclear acetylation correlates with inhibition of class I deacetylases such as HDAC1 and HDAC2. An automated epiflourescent assay was therefore developed which is measures histone hyperacetylation. Cells were seeded in 384-well plate format (500 cells/well) and treated with compound. They were then fixed and stained with: a) Hoechst (nuclei); b) primary anti-AcHistone polyclonal Ab; c) anti-Keratin monoclonal antibody; and d) compatible flurophore-conjugated secondary antibodies. After automated image acquisition, a custom analysis program was applied that identifies and masks cells based on nuclear intensity (Hoechst) and then derives quantitative fluorescent data from the FITC (AcHistone) image. Subsequent secondary masks were generated using cytosolic intensity.
We have performed studies of HDAC inhibitor effects on NMC cells in culture using an adaptation of the assay described above. […] In a first attempt at multiplexed detection and quantification of effects on cell proliferation, histone acetylation, and keratin protein expression, we have witnessed clear, dose-response activity of SAHA in the pharmacologically achievable range (Cmax approximately 2 μM).

For series [1] the following is noted: pharmacologically achievable range; cited from earlier work.
The next series relates to NMC cell lines. Nature of the series: SAHA treatment of five NMC cell lines. Format: cell-based. The note with it: pharmacologic doses.
The next series has as its system NMC cells. Nature of the series: TSA dose- and time-ranging studies in cultured NMC cells (immunofluorescence, bright-field microscopy, keratin immunohistochemistry). It is filed as cell-based. How it is done:
Studies aimed at testing the hypothesis of HDAC inhibitor therapy in NMC have been conducted using trichostatin A (TSA), and vorinostat (SAHA, Zolinza®). Both of these compounds are regarded as non-selective for class I and II deacetylases and bind HDAC proteins by chelating the active site zinc atom with a hydroxamic acid feature. NMC cells cultured in vitro were treated with TSA in dose- and time-ranging studies. […] With further drug exposure, a differentiation phenotype was observed by bright-field microscopy and by immunohistochemistry for the epithelial differentiation-associated protein, keratin.

`O=C(CCCCCCC(=O)Nc1ccccc1)NO` [SAHA, suberoylanilide hydroxamic acid]: the histone acetylation entry in the series on NMC (TC797) cells (dose-ranging, qualitative in images) was “increased histone acetylation”. In the series on NMC (TC797) cells (multiplexed detection), the cell proliferation result is “reduction in cell proliferation” and the keratin protein content entry was “induction of increased keratin protein content”. For the same compound, the maximum concentration (Cmax) (usually the highest concentration seen after dosing) in series [1] was roughly 2000 nM. Further, in the series on NMC cell lines, the differentiation result was “resulted in differentiation” and the growth entry is “arrested growth”.

Consider `CC(/C=C/C(=O)NO)=C\[C@@H](C)C(=O)c1ccc(N(C)C)cc1` [TSA, trichostatin A], for which the “differentiation by brightfield microscopy” value in the series with NMC cells (TSA 25 nM, within 24 hours) is listed as “rapidly differentiate”. Also, the “distribution of BRD-NUT and acetylation marks” value with NMC cells (immunofluorescence microscopy) is “redistribution of both BRD-NUT and acetylation marks from nuclear speckles to a diffuse pattern”. The histone acetylation result with NMC cells (immunofluorescence microscopy, dose- and time-ranging) is “increase in histone acetylation with increasing dose and time of exposure”. In the series with NMC cells (immunohistochemistry), the cytoplasmic keratin staining entry is listed as “increases in cytoplasmic keratin staining”.
